From a compilation of properties of binary mixtures (doi:10.1021/acs.iecr.1c02970)

Experiment: xn = mol fraction of the nth substance listed
Details: 100 kPa

O + CC[n+]1ccn(C)c1.CS(=O)(=O)[O-]
x2 = 0
Details	electrical conductivity [S/m]	speed of sound [m/s]	viscosity [mPa·s]
293.15 K	–	–	1.002
303.15 K	0.0001	–	0.797
313.15 K	0.0002	1529.2	0.653
318.15 K	–	1536.7	–
343.15 K	0.0018	1555.1	0.4039
353.15 K	0.0023	–	0.3544

CC[n+]1ccn(C)c1.CS(=O)(=O)[O-] + O
Details	electrical conductivity [S/m]	speed of sound [m/s]	viscosity [mPa·s]
293.15 K, x1 = 0.002	0.693	–	–
293.15 K, x1 = 0.0177	–	–	1.439
293.15 K, x1 = 0.0181	–	1596.2	–
293.15 K, x1 = 0.028	4.07	–	–
293.15 K, x1 = 0.0357	–	–	1.98
293.15 K, x1 = 0.0375	–	1686.1	–
293.15 K, x1 = 0.0489	4.55	–	–
293.15 K, x1 = 0.07	4.39	–	–
293.15 K, x1 = 0.0749	–	1801.7	–
293.15 K, x1 = 0.0945	–	1837.1	–
293.15 K, x1 = 0.1089	–	–	5.395
293.15 K, x1 = 0.1122	3.62	–	–
293.15 K, x1 = 0.113	–	1857.6	–
293.15 K, x1 = 0.1833	–	1882.3	–
293.15 K, x1 = 0.1848	–	–	10.55
293.15 K, x1 = 0.2034	2.29	–	–
293.15 K, x1 = 0.2741	–	1871.1	–
293.15 K, x1 = 0.3671	–	1850.8	–
293.15 K, x1 = 0.3752	1.19	–	–
293.15 K, x1 = 0.4263	–	–	34.52
293.15 K, x1 = 0.6064	–	1809.5	–
293.15 K, x1 = 0.6951	–	1800.2	–
293.15 K, x1 = 0.7708	–	1793	–
293.15 K, x1 = 0.9157	–	1780.8	–
293.15 K, x1 = 0.9339	0.201	–	–
293.15 K, x1 = 0.9357	–	–	214.4
293.15 K, x2 = 0.0082	–	1779.6	–
298.15 K, x1 = 0.0375	–	1686.1	–
298.15 K, x1 = 0.056	–	1749	–
298.15 K, x1 = 0.0749	–	1794.6	–
298.15 K, x1 = 0.0945	–	1828.1	–
298.15 K, x1 = 0.113	–	1847.4	–
298.15 K, x1 = 0.2741	–	1859.1	–
298.15 K, x1 = 0.3671	–	1839	–
298.15 K, x1 = 0.489	–	1815.1	–
298.15 K, x1 = 0.6064	–	1797	–
298.15 K, x1 = 0.6951	–	1787.9	–
298.15 K, x1 = 0.9157	–	1767.6	–
298.15 K, x2 = 0.0082	–	1766.9	–
303.15 K, x1 = 0.002	0.852	–	–
303.15 K, x1 = 0.0165	4.03	–	–
303.15 K, x1 = 0.0181	–	1607.4	–
303.15 K, x1 = 0.028	5.09	–	–
303.15 K, x1 = 0.0357	–	–	1.541
303.15 K, x1 = 0.0375	–	1685.5	–
303.15 K, x1 = 0.0489	5.75	–	–
303.15 K, x1 = 0.0674	–	–	2.309
303.15 K, x1 = 0.07	5.61	–	–
303.15 K, x1 = 0.0749	–	1787.3	–
303.15 K, x1 = 0.0945	–	1818.7	–
303.15 K, x1 = 0.1089	–	–	3.994
303.15 K, x1 = 0.113	–	1837.3	–
303.15 K, x1 = 0.1833	–	1859.5	–
303.15 K, x1 = 0.1848	–	–	7.58
303.15 K, x1 = 0.2034	3.13	–	–
303.15 K, x1 = 0.2741	–	1847.2	–
303.15 K, x1 = 0.3671	–	1827.1	–
303.15 K, x1 = 0.3752	1.67	–	–
303.15 K, x1 = 0.4263	–	–	23.25
303.15 K, x1 = 0.489	–	1802.7	–
303.15 K, x1 = 0.6951	–	1775.8	–
303.15 K, x1 = 0.7708	–	1767.9	–
303.15 K, x1 = 0.9157	–	1755.3	–
303.15 K, x1 = 0.9339	0.351	–	–
303.15 K, x2 = 0.0082	–	1754.4	–
308.15 K, x1 = 0.0181	–	1611.3	–
308.15 K, x1 = 0.0375	–	1684.1	–
308.15 K, x1 = 0.056	–	1739.2	–
308.15 K, x1 = 0.0749	–	1779.7	–
308.15 K, x1 = 0.113	–	1827	–
308.15 K, x1 = 0.1833	–	1848.4	–
308.15 K, x1 = 0.2741	–	1835.3	–
308.15 K, x1 = 0.3671	–	1815.2	–
308.15 K, x1 = 0.489	–	1790.4	–
308.15 K, x1 = 0.6951	–	1763.8	–
308.15 K, x1 = 0.7708	–	1755.8	–
308.15 K, x1 = 0.9157	–	1743.1	–
308.15 K, x2 = 0.0082	–	1742.1	–
313.15 K, x1 = 0.002	1.02	–	–
313.15 K, x1 = 0.0165	4.87	–	–
313.15 K, x1 = 0.0177	–	–	0.917
313.15 K, x1 = 0.0181	–	1614.1	–
313.15 K, x1 = 0.028	6.18	–	–
313.15 K, x1 = 0.0375	–	1682.2	–
313.15 K, x1 = 0.0489	7.04	–	–
313.15 K, x1 = 0.056	–	1733.8	–
313.15 K, x1 = 0.0674	–	–	1.819
313.15 K, x1 = 0.07	6.95	–	–
313.15 K, x1 = 0.0749	–	1771.7	–
313.15 K, x1 = 0.0945	–	1799.6	–
313.15 K, x1 = 0.1122	6	–	–
313.15 K, x1 = 0.113	–	1816.6	–
313.15 K, x1 = 0.1833	–	1836.9	–
313.15 K, x1 = 0.1848	–	–	5.649
313.15 K, x1 = 0.2034	4.08	–	–
313.15 K, x1 = 0.2741	–	1823.4	–
313.15 K, x1 = 0.3671	–	1803.3	–
313.15 K, x1 = 0.4263	–	–	16.5
313.15 K, x1 = 0.489	–	1778.5	–
313.15 K, x1 = 0.6064	–	1760.4	–
313.15 K, x1 = 0.6951	–	1751.7	–
313.15 K, x1 = 0.7708	–	1743.9	–
313.15 K, x1 = 0.9339	0.558	–	–
313.15 K, x1 = 0.9357	–	–	68.4
313.15 K, x2 = 0.0082	–	1730	–
318.15 K, x1 = 0.0181	–	1615.9	–
318.15 K, x1 = 0.056	–	1727.8	–
318.15 K, x1 = 0.0749	–	1763.5	–
318.15 K, x1 = 0.113	–	1806.2	–
318.15 K, x1 = 0.2741	–	1811.2	–
318.15 K, x1 = 0.3671	–	1791.3	–
318.15 K, x1 = 0.489	–	1766.7	–
318.15 K, x1 = 0.6064	–	1748.6	–
318.15 K, x1 = 0.7708	–	1731.9	–
318.15 K, x1 = 0.9157	–	1719.1	–
318.15 K, x2 = 0.0082	–	1717.9	–
323.15 K, x1 = 0.002	1.2	–	–
323.15 K, x1 = 0.0165	5.73	–	–
323.15 K, x1 = 0.0181	–	1616.5	–
323.15 K, x1 = 0.028	7.33	–	–
323.15 K, x1 = 0.056	–	1721.3	–
323.15 K, x1 = 0.0674	–	–	1.468
323.15 K, x1 = 0.07	8.43	–	–
323.15 K, x1 = 0.0749	–	1754.8	–
323.15 K, x1 = 0.0945	–	1779.5	–
323.15 K, x1 = 0.1089	–	–	2.428
323.15 K, x1 = 0.1122	7.28	–	–
323.15 K, x1 = 0.1848	–	–	4.37
323.15 K, x1 = 0.2741	–	1799	–
323.15 K, x1 = 0.489	–	1754.8	–
323.15 K, x1 = 0.6951	–	1727.9	–
323.15 K, x1 = 0.7708	–	1720	–
323.15 K, x1 = 0.9157	–	1707.2	–
323.15 K, x1 = 0.9357	–	–	44.06
323.15 K, x2 = 0.0082	–	1705.9	–
328.15 K, x1 = 0.0181	–	1616.2	–
328.15 K, x1 = 0.0375	–	1672.1	–
328.15 K, x1 = 0.056	–	1714.4	–
328.15 K, x1 = 0.0749	–	1745.8	–
328.15 K, x1 = 0.0945	–	1769	–
328.15 K, x1 = 0.113	–	1783.9	–
328.15 K, x1 = 0.1833	–	1800.7	–
328.15 K, x1 = 0.2741	–	1786.7	–
328.15 K, x1 = 0.489	–	1743	–
328.15 K, x1 = 0.6064	–	1725	–
328.15 K, x1 = 0.6951	–	1716.1	–
328.15 K, x1 = 0.7708	–	1707.9	–
328.15 K, x1 = 0.9157	–	1695.4	–
333.15 K, x1 = 0.002	1.38	–	–
333.15 K, x1 = 0.0165	6.66	–	–
333.15 K, x1 = 0.0177	–	–	0.642
333.15 K, x1 = 0.0181	–	1615.2	–
333.15 K, x1 = 0.028	8.53	–	–
333.15 K, x1 = 0.0357	–	–	0.848
333.15 K, x1 = 0.0375	–	1667.4	–
333.15 K, x1 = 0.0489	9.85	–	–
333.15 K, x1 = 0.0674	–	–	1.214
333.15 K, x1 = 0.07	9.96	–	–
333.15 K, x1 = 0.0749	–	1736.4	–
333.15 K, x1 = 0.0945	–	1758.3	–
333.15 K, x1 = 0.1089	–	–	1.965
333.15 K, x1 = 0.1122	8.86	–	–
333.15 K, x1 = 0.113	–	1772.4	–
333.15 K, x1 = 0.1848	–	–	3.473
333.15 K, x1 = 0.2034	6.33	–	–
333.15 K, x1 = 0.2741	–	1774.2	–
333.15 K, x1 = 0.3752	3.67	–	–
333.15 K, x1 = 0.4263	–	–	9.38
333.15 K, x1 = 0.6064	–	1713.3	–
333.15 K, x1 = 0.6951	–	1704.2	–
333.15 K, x1 = 0.7708	–	1696.1	–
333.15 K, x1 = 0.9157	–	1683.7	–
333.15 K, x1 = 0.9339	1.16	–	–
333.15 K, x1 = 0.9357	–	–	29.98
333.15 K, x2 = 0.0082	–	1682.3	–
343.15 K, x1 = 0.002	1.59	–	–
343.15 K, x1 = 0.0177	–	–	0.551
343.15 K, x1 = 0.0181	–	1610.8	–
343.15 K, x1 = 0.028	9.78	–	–
343.15 K, x1 = 0.0357	–	–	0.735
343.15 K, x1 = 0.0375	–	1656.3	–
343.15 K, x1 = 0.056	–	1690.9	–
343.15 K, x1 = 0.0674	–	–	1.026
343.15 K, x1 = 0.07	11.6	–	–
343.15 K, x1 = 0.0749	–	1716.8	–
343.15 K, x1 = 0.0945	–	1736.2	–
343.15 K, x1 = 0.1089	–	–	1.629
343.15 K, x1 = 0.1122	10.4	–	–
343.15 K, x1 = 0.113	–	1748.7	–
343.15 K, x1 = 0.1833	–	1762.7	–
343.15 K, x1 = 0.1848	–	–	2.831
343.15 K, x1 = 0.2034	7.58	–	–
343.15 K, x1 = 0.2741	–	1749.3	–
343.15 K, x1 = 0.3671	–	1730.3	–
343.15 K, x1 = 0.3752	4.5	–	–
343.15 K, x1 = 0.489	–	1707.6	–
343.15 K, x1 = 0.6951	–	1680.7	–
343.15 K, x1 = 0.9157	–	1660.7	–
343.15 K, x1 = 0.9339	1.55	–	–
343.15 K, x1 = 0.9357	–	–	21.61
343.15 K, x2 = 0.0082	–	1659	–
353.15 K, x1 = 0.002	1.81	–	–
353.15 K, x1 = 0.0177	–	–	0.475
353.15 K, x1 = 0.028	11.1	–	–
353.15 K, x1 = 0.0357	–	–	0.625
353.15 K, x1 = 0.07	13.2	–	–
353.15 K, x1 = 0.1089	–	–	1.37
353.15 K, x1 = 0.1122	12.1	–	–
353.15 K, x1 = 0.2034	8.9	–	–
353.15 K, x1 = 0.9357	–	–	16.3
